From patent publication US12622917B2, “High-activity Wnt pathway inhibitor compound” (ADLAI NORTYE BIOPHARMA CO., LTD., priority 2020, dated 2026)

Tests used:
Format in all cases: cell-based
[1] = system: Colo205-LUC-TCF/LEF M1 reporter cell line (Wnt pathway); test: Colo205-LUC-TCF/LEF M1 reporter gene (luciferase) inhibition; conditions: 4 hours incubation, luciferase readout
From the text: Colo205 cell line (Cell Bank of Chinese Academy of Sciences, Cat #TCHu102) was purchased from the Cell Bank of Chinese Academy of Sciences. After expansion and subculture, in the exponential growth phase of the cells, transfection with lipo3000 liposome transfection with TCF/LEF transcription factors Driven luciferase reporter plasmid (Promega). […] The plasmid carries a resistance gene for resistance screening. Transfection was carried out in 10 cm culture dishes using conventional complete medium without resistance. After 2 days, the medium with resistance was replaced, and the culture was continued. After that, the resistant medium was replaced every 2 days, and the suspended cells were discarded. The original medium was centrifuged to remove cells and debris and retained as an adaptive medium. When the cells covered the culture dish, the cells were digested, counted, and passaged in a 96-well plate, so that the average number of cells contained in each well was 1.5/well, and the adaptive medium was used for passage. The rest of the cells were frozen. After subculture, culture for 4 hours to allow the cells to adhere to the wall, and then observe the number of cells in each well under a microscope. Wells with only 1 cell per well were labeled as monoclonal wells. Afterwards, normal culture was performed, and the culture medium was replaced every 2 days, and observed. There are holes where the monoclonal cells continue to grow in the early stage, and they are labeled twice, and can be replaced with normal resistant medium. When a monoclonal well was overgrown with a 96-well plate, it is digested and passaged to a 24-well culture plate. After the 24-well plate is overgrown, it is passaged to a 96-well plate and a 6-well plate. The cells in a 96-well plate are at least 6 wells, of which 3 wells were added with known Wnt inhibitors, and the other 3 wells were not treated. After 24 hours, the cells in the 96-well plate were added with a fluorescence detection reagent to detect the fluorescence intensity. Cell lines with fluorescent expression when not treated and decreased fluorescent light after inhibition were selected and further cultured. The Colo205-LUC-TCF/LEF-M1 cell line is one of the cell lines screened above. Its growth curve, cell shape, and cell growth state are similar to those of the original Colo205 cells, and the ratio of the fluorescent signals of the inhibitor-treated and untreated cells is the largest among all cell lines, and the ratio can reach 4-5 times when inhibited at 4 hours, which was completely suitable for the screening of Wnt inhibitors in the later stage.
The Colo205-LUC-TCF/LEF M1 cell line is a reporter tool cell stably transfected with the pGL4.49-LUC2-TCF/LEF vector. The β-catenin Wnt pathway is continuously activated. After adding the inhibitor, the Wnt pathway is inhibited. The expression of firefly luciferase regulated by the[…] cis-element decreased, and after adding the detection substrate, the detected light signal decreased accordingly, so as to detect the inhibitory effect of the compound.
To a 96-well cell culture plate, add 100 uL of the compound with a maximum concentration of 20 uM to each well, and make a 3-fold serial dilution of the compound concentration. Then 10,000 colo205 cells stably transfected with the reporter gene and 100 uL medium were inoculated into each well, and corresponding positive and negative control wells were made at the same time. Put the cells in a 5% CO2 incubator and incubate at 37° C. for 4 hours. After 4 hours, remove the culture medium, add 100 uL of reagent (Promega) containing the corresponding firefly luciferase substrate to each well, and measure the activity of luciferase reporter gene. Luminescence intensity was read with SpectraMax in full wavelength mode. […]

RKO = test: Proliferation inhibition, non-Wnt mutant control cell line RKO; conditions: Homo sapiens, Wnt-independent control cell line, 96 hours, read-out: Antiproliferative IC50 RKO
From the text: (§1) The cell lines used in the experiment are Colo205 and DU4475 cell lines whose Wnt pathway is continuously activated and whose proliferation is Wnt pathway-dependent; while the BELA and RKO cell lines, whose Wnt pathway is not activated under normal circumstances and the proliferation is independent of Wnt pathway, as control cell lines. It is Judged that the inhibitory effect of the compound of the present invention on Wnt-dependent proliferation is not caused by other non-specific toxicity.
(§2) Treat the Colo205, Du4475, HELA and RKO cell lines cultured in their respective mediums in the logarithmic growth phase, collect the cells and prepare a uniform cell suspension of known concentration, and then add it to the 96-well cell culture plate Cell suspension, so that each well contains 1000 cells. Put it into a 5% CO2 incubator and incubate at 37° C. for 20-24 h. On the second day, the fully dissolved, 3-fold serially diluted compound was added to each cell culture well, so that the final maximum concentration in the cell culture well was 20 uM, and the culture was continued for 96 hours. In this test, Promega's cell viability detection test is used for detection. The more the cells proliferate, the stronger the final signal intensity will be. The detection instrument is SpectraMax, full wavelength mode. The wells only added with DMSO were used as positive control wells, and the wells that were not inoculated with cells were used as negative control wells. […] The IC50 value of cell proliferation inhibition was used to evaluate the inhibitory effect of the compound on the Wnt pathway and the toxic effect on normal cells (Table 2).

Colo205 = test: Proliferation inhibition, Wnt mutant cell line Colo205; conditions: Homo sapiens, COLO 205; Colo205, Wnt pathway-dependent, 96 hours; read-out: Antiproliferative IC50 Colo205
From the text: as §1, §2

IC50 [1] | IC50 (Colo205) | SMILES | IC50 (RKO)
 | 48 nM | [2H]C([2H])([2H])N1c2nc(NCc3ccc(Oc4ccc(C(F)(F)F)nc4)nc3)nc3c2N(CCC3)C(=O)[C@]1(C)CO [220 (W398)] | > 10 µM
 | 43 nM | [2H]C([2H])([2H])N1c2nc(NCc3ccc(Oc4cnc(C(F)(F)F)nc4)nc3)nc3c2N(CCC3)C(=O)[C@]1(C)CO [221 (W399)] | > 10 µM
 | 61 nM | CN1c2nc(NCc3ccc(Oc4cc(C(F)(F)F)nn4C)nc3)nc3c2N(CCC3)C(=O)[C@@H]1CO [222 (W402)] | > 10 µM
59 nM | 35 nM | CN1c2nc(NCc3ccc(Oc4cc(C(F)(F)F)nn4C)nc3)nc3c2N(CCC3)C(=O)[C@]1(C)CO [223 (W403)] | > 10 µM
 | 63 nM | CN1c2nc(NCc3ccc(Oc4cnc(C(F)(F)F)nc4)nc3)nc3c2N(CCC3)C(=O)[C@@]12CCOC2 [224 (W406)] | > 10 µM
 | 57 nM | CN1c2nc(NCc3ccc(Oc4cnc(C(F)(F)F)nc4)nc3)nc3c2N(CCC3)C(=O)[C@]12CCOC2 [225 (W407)] | > 10 µM
 | 52 nM | CCn1nc(C(F)(F)F)c(C2CC2)c1Oc1ccc(CNc2nc3c4c(n2)N(C)[C@@](C)(CO)C(=O)N4CCC3)cn1 [233 (W419)] | > 10 µM
36 nM | 28.3 nM | C[C@H](O)[C@@]1(C)C(=O)N2CCCc3nc(NCc4ccc(Oc5ccc(C(F)(F)F)nc5)nc4)nc(c32)N1C [239 (W427)] | > 10 µM
83 nM |  | C[C@H]1C(=O)N2CCCc3nc(NCc4cnn(Cc5ccc(C(F)(F)F)nc5)c4)nc(c32)N1C [Example 1, (S)-4,5-dimethyl-2-(((1-((6-(trifluoromethyl)pyridine-3-yl)methyl)-1H-pyrazol-4-yl)methyl)amino)-4,5,9,10-tetrahydro-6H,8H-pyrido[3,2,1-de]pteridin-6-one] | 
93 nM |  | C[C@H]1CN(C)c2nc(NCc3ccc(CCC(F)(F)F)nc3)nc3ccn1c23 [Example 20, (S)-4,6-dimethyl-N-((6-(3,3,3-trifluoropropyl)pyridin-3-yl)methyl)-5,6-dihydro-4H-pyrrole And[3,2,1-de]pteridin-2-amine] | 

More lines, now with the values behind:

SMILES | IC50 [1] | IC50 (Colo205) | IC50 (RKO)
C[C@H]1Cn2cc(F)c3nc(NCc4cnn(Cc5ccc(F)cc5)c4)nc(c32)N1C [64 (W23)] | 41 nM |  | 
C[C@H]1Cn2ccc3nc(NCc4cnn(CCc5ccc(F)cc5)c4)nc(c32)N1C [66 (W43)] | 11 nM |  | 
FC1(F)C[C@H]2Cn3ccc4nc(NCc5cnn(Cc6ccc(C(F)(F)F)nc6)c5)nc(c43)N2C1 [69 (W50)] | 21 nM |  | 
[2H]C([2H])([2H])N1c2nc(NCc3cnn(Cc4ccc(C(F)(F)F)nc4)c3)nc3ccn(c23)C[C@@H]1C [73 (W85)] | 24 nM |  | 
CN1CC2(CC2)Cn2ccc3nc(NCc4cnn(Cc5ccc(C(F)(F)F)nc5)c4)nc1c32 [76 (W83)] | 67 nM |  | 
[2H]C([2H])([2H])OC[C@H]1C(=O)N2CCCc3nc(NCc4ccc(Oc5cnc(C(F)(F)F)nc5)nc4)nc(c32)N1C([2H])([2H])[2H] [132 (W383), (S)-5-((methoxy-d3)methyl)-4-(methyl-d3)-2-(((6-((2-(trifluoromethyl)pyrimidin-5-yl)oxo)pyridin-3-yl)methyl)amino)-4,5,9,10-tetrahydro-6H,8H-pyrido[3,2,1-de]pteridin-6-one] | 42 nM | 25 nM | > 10 µM
CN1c2nc(NCc3ccc(Oc4ccc(C(F)(F)F)nc4)nc3)nc3c2N(CCC3)C(=O)[C@]1(C)CO [133 (W377), (S)-5-(hydroxymethyl)-4,5-dimethyl-2-(((6-((6-(trifluoromethyl)pyridin-3-yl)oxo)pyridine-3-yl)methyl)amino)-4,5,9,10-tetrahydro-6H,8H-pyrido[3,2,1-de]pteridin-6-one] | 58 nM | 35 nM | > 10 µM
C[C@H]1C(=O)N2CCCc3nc(NCc4ccc(Oc5ccc(C6CC6)nc5)nc4)nc(c32)N1C [137 (W335), (S)-2-(((6-((6-cyclopropylpyridin-3-yl)oxo)pyridin-3-yl)methyl)amino)-4,5-dimethyl-4,5,9,10-tetrahydro-6H,8H-pyrido[3,2,1-de]pteridin-6-one] |  | 138 nM | > 10 µM
CN1c2nc(NCc3ccc(Oc4cnc(C(F)(F)F)nc4)nc3)nc3c2N(CCC3)C(=O)[C@]1(C)CO [140 (W376), (S)-5-(hydroxymethyl)-4,5-dimethyl-2-(((6-((2-(trifluoromethyl)pyrimidin-5-yl)oxo)pyridine-3-Base)methyl)amino)-4,5,9,10-tetrahydro-6H,8H-pyrido[3,2,1-de]pteridin-6-one] |  | 49 nM | > 10 µM
CCOC[C@H]1C(=O)N2CCCc3nc(NCc4ccc(Oc5cnc(C(F)(F)F)nc5)nc4)nc(c32)N1C [155 (W347)] | 77 nM | 88 nM | > 10 µM
CN1c2nc(NCc3ccc(Oc4cnc(C(F)(F)F)nc4)nc3)nc3c2N(CCC3)C(=O)C12CC2 [175 (W327)] | 28 nM |  | 
CN1c2nc(NCc3ccc(Oc4ccc(C(F)(F)F)nc4)nc3)nc3c2N(CCC3)C(=O)C12CCOC2 (stereo not drawn) [207 (W357)] |  | 84 nM | > 10 µM
CN1c2nc(NCc3ccc(Oc4ccc(C(F)(F)F)nc4)nc3)nc3c2N(CCC3)C(=O)[C@]12CCOC2 [209 (W405)] |  | 30 nM | > 10 µM
COCCC1C(=O)N2CCCc3nc(NCc4ccc(Oc5cnc(C(F)(F)F)nc5)nc4)nc(c32)N1C (stereo not drawn) [210 (W371)] |  | 60 nM | > 10 µM
COCC[C@H]1C(=O)N2CCCc3nc(NCc4ccc(Oc5cnc(C(F)(F)F)nc5)nc4)nc(c32)N1C [211 (W390)] | 43 nM | 23 nM | > 10 µM
COCCC1C(=O)N2CCCc3nc(NCc4ccc(Oc5ccc(C(F)(F)F)nc5)nc4)nc(c32)N1C (stereo not drawn) [213 (W355)] | 69 nM | 53 nM | > 10 µM
COCC[C@@H]1C(=O)N2CCCc3nc(NCc4ccc(Oc5ccc(C(F)(F)F)nc5)nc4)nc(c32)N1C [215 (W391)] |  | 53 nM | > 10 µM
CN1c2nc(NCc3ccc(Oc4ccc(C(F)(F)F)nc4)nc3)nc3c2N(CCC3)C(=O)C12CCOCC2 [216 (W352)] |  | 39 nM | > 10 µM
CN1c2nc(NCc3ccc(Oc4cnc(C(F)(F)F)nc4)nc3)nc3c2N(CCC3)C(=O)C12CCOCC2 [217 (W359)] |  | 57 nM | > 10 µM
CN1c2nc(NCc3ccc(Oc4cnc(C(F)(F)F)nc4)nc3)nc3c2N(CCC3)C(=O)[C@@H]1C1CCOCC1 [218 (W339)] | 30 nM | 17 nM | > 10 µM
CN1c2nc(NCc3ccc(Oc4ccc(C(F)(F)F)nc4)nc3)nc3c2N(CCC3)C(=O)[C@@H]1C1CCOCC1 [219 (W338)] | 31 nM | 10 nM | > 10 µM
